Data taken from US11180452B2, “Methods and compositions for selectively inhibiting pathogenic microbes” (priority 2019, dated 2021).
≈ marks a conversion by molar mass, not a printed value. Where two headings read alike, the source gives them in different places.

Columns and labels:
NoSpin HepaRG cells = experiment: HepaRG cytotoxicity, MTT assay EC50; type: cell-based, human; conditions: Homo sapiens, HepaRG; cytotoxicity EC50, Table 9
Description: Additionally, the antimicrobial compounds were analyzed for cytotoxicity. […] We utilized the standard MTT assay (Promega CellTiter 96) and GraphPad Prism 7 software to determine EC50 values for each analogue. Briefly, 20,000 HepG2 cells in 200 μl of the ATCC recommended media were seeded in each well of a 96-well plate with a moisture barrier created in the outermost wells. The cells were allowed to attach overnight at 37° C., and then observed under phase contrast microscopy for proper morphological characteristics. […] Once incubations were complete, the spectrophotometric absorbance of the samples was measured at a wavelength of 595 nm. […] For the HepaRG assay, NoSpin HepaRG™ cells (Lonza, cat #NSHPRG) were thawed and plated with 20,000 cells per well. They were allowed to attach for 4 h (optimal DME profile per Lonza's testing) before dosing following the identical protocol as above.

Trichophyton rubrum = experiment: MIC against Trichophyton rubrum; type: cell-based; conditions: Trichophyton rubrum Castellani Sabouraud ATCC: 28188; read-out: MIC
Bacillus subtilis = Bacillus subtilis MIC / MBC; type: cell-based; conditions: for MBC: Bacillus subtilis NRRL: B-571, minimum bactericidal concentration; for MIC: Bacillus subtilis, Bacillus subtilis (Ehrenberg 1835) Cohn 1872 NRRL: B-571, read-out: MIC
Bacillus thuringiensis = type: cell-based; conditions: Bacillus thuringiensis Berliner ATCC: 10792; for MIC: Bacillus thuringiensis, read-out: MIC
Candida glabrata = Candida glabrata MIC / MFC; type: cell-based; conditions: Nakaseomyces glabratus; for MFC: read-out: MFC; for MIC: read-out: MIC
[1] = system: Burkholderia thailandensis Brett et al ATCC: 700388; experiment: microbe, parasite or virus in culture; type: cell-based
C. albicans = experiment: Candida albicans MIC / MFC; type: cell-based
[2] = system: Francisella tularensis strains; experiment: microbe, parasite or virus in culture; type: cell-based
[3] = system: Francisella tularensis subsp. Holarctica Strain LVSR NR-597; experiment: microbe, parasite or virus in culture; type: cell-based
N. gonorrhoeae = N. gonorrhoeae MIC; type: cell-based; conditions: Neisseria gonorrhoeae
[4] = Candida glabrata #584 (Table 2), minimum fungicidal concentration
[5] = Candida glabrata #584 (Table 2)

Compound	EC50 (NoSpin HepaRG cells) [µg/mL]	MIC (Trichophyton rubrum) [µg/mL]	MBC (Bacillus subtilis) [µg/mL]	MIC (Bacillus subtilis) [µg/mL]	MBC (Bacillus thuringiensis) [µg/mL]	MIC (Bacillus thuringiensis) [µg/mL]	MFC (Candida glabrata; [4]) [µg/mL]	MIC (Candida glabrata; [5]) [µg/mL]	MIC [1] [µg/mL]	MIC [3] [µg/mL]	MIC (N. gonorrhoeae; strain #203) [µg/mL]	MIC (N. gonorrhoeae; strain #205) [µg/mL]	MBC [1] [µg/mL]	other results
Fc1ccc(Sc2c[nH]c3ccc(Br)cc23)cc1 [Compound 174P, 5-bromo-3-((4-fluorophenyl)thio)-1H-indole]	38.3 (≈ 119 µM)	2.01 (≈ 6.24 µM)	3.13 (≈ 9.71 µM)	1.56 (≈ 4.84 µM)	> 50	1.56 (≈ 4.84 µM)	> 50	3.13 (≈ 9.71 µM)	> 50					
Clc1ccc(Sc2c[nH]c3ccc(Br)cc23)c(Cl)c1 [Compound 174V, 5-bromo-3-((2,4-dichlorophenyl)thio)-1H-indole]	24.8 (≈ 66.5 µM)	0.58 (≈ 1.55 µM)	2.5 (≈ 6.7 µM)	1.25 (≈ 3.35 µM)	2.5 (≈ 6.7 µM)	1.25 (≈ 3.35 µM)	12.5 (≈ 33.5 µM)	3.13 (≈ 8.39 µM)	> 50					
Nc1cc(Br)ccc1Sc1c[nH]c2ccc(Br)cc12 [Compound 174X, 5-bromo-2-((5-bromo-1H-indol-3-yl)thio)aniline]	30.2 (≈ 75.9 µM)	0.62 (≈ 1.56 µM)	> 10	1.56 (≈ 3.92 µM)	2.5 (≈ 6.28 µM)	2.5 (≈ 6.28 µM)	6.25 (≈ 15.7 µM)		> 50					MFC (C. albicans; C. albicans strain #761, read-out: MFC): > 50 µg/mL; MIC (C. albicans; C. albicans strain #761, read-out: MIC): 12.5 µg/mL (≈ 31.4 µM); MFC (C. albicans; C. albicans strain #762, read-out: MFC): > 50 µg/mL; MIC (C. albicans; C. albicans strain #762, read-out: MIC): 12.5 µg/mL (≈ 31.4 µM); MIC50 [2]: 4 µg/mL (≈ 10 µM); MIC ([2]; read-out: F. tularensis BSL-3 MIC, Strain 100): 8 µg/mL (≈ 20.1 µM); MIC ([2]; read-out: F. tularensis BSL-3 MIC, strain HN-63): 4 µg/mL (≈ 10 µM); MIC ([2]; read-out: F. tularensis BSL-3 MIC, strain LVS): > 8 µg/mL; MIC ([2]; read-out: F. tularensis BSL-3 MIC, strain MA00-2987): 4 µg/mL (≈ 10 µM); MIC ([2]; read-out: F. tularensis BSL-3 MIC, strain MO #1): 2.67 µg/mL (≈ 6.71 µM); MIC ([2]; read-out: F. tularensis BSL-3 MIC, strain MO #2): 2 µg/mL (≈ 5.02 µM); MIC ([2]; read-out: F. tularensis BSL-3 MIC, strain MO #3): 4 µg/mL (≈ 10 µM); MIC ([2]; read-out: F. tularensis BSL-3 MIC, strain OR-96): 4 µg/mL (≈ 10 µM); MIC ([2]; read-out: F. tularensis BSL-3 MIC, strain SCHU S4): 4 µg/mL (≈ 10 µM); MIC ([2]; read-out: F. tularensis BSL-3 MIC, strain WY-96): 3 µg/mL (≈ 7.54 µM); MIC ([2]; read-out: MAX, highest MIC over the Francisella tularensis strains): > 8 µg/mL; MIC ([2]; read-out: MIN, lowest MIC over the Francisella tularensis strains): 2 µg/mL (≈ 5.02 µM); MFC (Candida glabrata; C. glabrata strain #325): > 50 µg/mL; MIC (Candida glabrata; C. glabrata strain #325): 12.5 µg/mL (≈ 31.4 µM)
Oc1ccccc1Sc1c[nH]c2ccc(C(F)(F)F)cc12 [Compound 177A, 2-((5-(trifluoromethyl)-1H-indol-3-yl)thio)phenol]	24.1 (≈ 77.9 µM)			0.39 (≈ 1.26 µM)				> 50	> 50	0.78 (≈ 2.52 µM)	3.13 (≈ 10.1 µM)	3.13 (≈ 10.1 µM)	> 50	
Nc1ccccc1Sc1c[nH]c2ccc(C(F)(F)F)cc12 [Compound 177C, 2-((5-(trifluoromethyl)-1H-indol-3-yl)thio)aniline]	48.2 (≈ 156 µM)			0.39 (≈ 1.26 µM)				> 50	> 50	3.13 (≈ 10.2 µM)	3.13 (≈ 10.2 µM)	3.13 (≈ 10.2 µM)	> 50	
